Reference: patent US20160145247A1, “Aminomethyl-Biaryl Derivatives Complement Factor D inhibitors and uses thereof” (NOVARTIS AG, priority 2013, published 2016)

Molecular target: T1, factor D (Homo sapiens, UniProt P00746)
T1 construct: made in house; host or cells: E. coli
Assay: factor D inhibition assay of Biological Example 2
Type: biochemical

T1 sequence (P00746 26-253): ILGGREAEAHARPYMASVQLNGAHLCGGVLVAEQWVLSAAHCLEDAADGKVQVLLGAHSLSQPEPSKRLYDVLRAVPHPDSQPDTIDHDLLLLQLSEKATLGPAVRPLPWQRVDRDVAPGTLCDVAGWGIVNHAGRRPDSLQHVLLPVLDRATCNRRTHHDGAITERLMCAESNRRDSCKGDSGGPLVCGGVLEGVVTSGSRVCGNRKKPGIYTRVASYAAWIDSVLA

Row | Structure (SMILES) | IC50 [nM]
1 | C[C@@H](N)c1cccc(-c2cc(COc3ccccc3CC(=O)O)cc(N(C)CC3CC3)c2)c1F [Example 245, (R)-2-(2-((3′-(1-aminoethyl)-5-((cyclopropylmethyl)(methyl)amino)-2′-fluoro-[1,1′-biphenyl]-3-yl)methoxy)phenyl)acetic acid] | 9
2 | C[C@@H](N)c1cccc(-c2cc(COc3ccccc3CC(=O)O)cc(CC3CCOCC3)c2)c1F [Example 246-C, (R)-2-(2-((3′-(1-aminoethyl)-2′-fluoro-5-((tetrahydro-2H-pyran-4-yl)methyl)-[1,1′-biphenyl]-3-yl)methoxy)phenyl)acetic acid] | < 1
3 | C[C@@H](N)c1cccc(-c2cc(COc3ccccc3CC(=O)O)cc(N3CCC3)c2)c1F [Example 247, (R)-2-(2-((3′-(1-aminoethyl)-5-(azetidin-1-yl)-2′-fluoro-[1,1′-biphenyl]-3-yl)methoxy)phenyl)acetic acid] | 10
4 | C[C@@H](N)c1cccc(-c2cc(CCC3CCOCC3)cc(COc3ccccc3CC(=O)O)c2)c1F [Example 248, (R)-2-(2-((3′-(1-aminoethyl)-2′-fluoro-5-(2-(tetrahydro-2H-pyran-4-yl)ethyl)-[1,1′-biphenyl]-3-yl)methoxy)phenyl)acetic acid] | 140
5 | CCOC(=O)Cc1ccccc1OCc1cc(NC[C@H]2CCCO2)cc(-c2cccc([C@@H](C)N)c2F)c1 [Example 249, Ethyl 2-(2-((3′-((R)-1-aminoethyl)-2′-fluoro-5-((((R)-tetrahydrofuran-2-yl)methyl)amino)-[1,1′-biphenyl]-3-yl)methoxy)phenyl)acetate] | 26900
6 | C[C@@H](N)c1cccc(-c2cc(COc3ccccc3CC(=O)O)cc(S(C)(=O)=O)c2)c1F [Example 250-D, (R)-2-(2-((3′-(1-aminoethyl)-2′-fluoro-5-(methylsulfonyl)-[1,1′-biphenyl]-3-yl)methoxy)phenyl)acetic acid] | 113
7 | C[C@@H](N)c1cccc(-c2cc(COc3ccccc3CC(=O)O)cc(S(C)(=O)=O)c2)c1 [Example 251, (R)-2-(2-((3′-(1-aminoethyl)-5-(methylsulfonyl)-[1,1′-biphenyl]-3-yl)methoxy)phenyl)acetic acid] | 158
8 | C[C@H](N)c1cccc(-c2cc(COc3ccccc3CC(=O)O)cc(S(C)(=O)=O)c2)c1F [Example 252, (S)-2-(2-((3′-(1-aminoethyl)-2′-fluoro-5-(methylsulfonyl)-[1,1′-biphenyl]-3-yl)methoxy)phenyl)acetic acid] | 1580
9 | C[C@@H](N)c1cccc(-c2cc(COc3ccccc3CC(=O)O)c3c(c2)OCO3)c1F [Example 253-E, (R)-2-(2-((6-(3-(1-Aminoethyl)-2-fluorophenyl)benzo[d][1,3]dioxol-4-yl)methoxy)phenyl)acetic acid] | 13
10 | C[C@@H](N)c1cccc(-c2cc(COc3ccccc3CC(=O)O)c3c(c2)OCO3)c1 [Example 254, (R)-2-(2-((6-(3-(1-aminoethyl)phenyl)benzo[d][1,3]dioxol-4-yl)methoxy)phenyl)acetic acid] | 32
11 | N[C@H](CO)c1cccc(-c2cc(COc3ccccc3CC(=O)O)c3c(c2)OCO3)c1 [Example 255, (S)-2-(2-((6-(3-(1-amino-2-hydroxyethyl)phenyl)benzo[d][1,3]dioxol-4-yl)methoxy)phenyl)acetic acid] | 9
12 | CCOc1cc(COc2ccccc2CC(=O)O)cc(-c2cccc([C@@H](C)N)c2F)c1 [Example 256-B, (R)-2-(2-((3′-(1-Aminoethyl)-5-ethoxy-2′-fluoro-[1,1′-biphenyl]-3-yl)methoxy)phenyl)acetic acid] | 3
13 | CCOc1cc(COc2ccccc2CC(=O)O)cc(-c2cccc([C@@H](C)N)c2)c1 [Example 257, (R)-2-(2-((3′-(1-aminoethyl)-5-ethoxy-[1,1′-biphenyl]-3-yl)methoxy)phenyl)acetic acid] | 9
14 | CCOc1cc(COc2ccccc2CC(=O)O)cc(-c2cccc(C(N)CF)c2F)c1 (stereo not drawn) [Example 258-C, 2-(2-((3′-(1-amino-2-fluoroethyl)-5-ethoxy-2′-fluoro-[1,1′-biphenyl]-3-yl)methoxy)phenyl)acetic acid] | 11
15 | C[C@@H](N)c1cccc(-c2cc(COc3ccccc3CC(=O)O)cc(OCC3(C)CC3)c2)c1F [Example 259-E, (R)-2-(2-((3′-(1-aminoethyl)-2′-fluoro-5-((1-methylcyclopropyl)methoxy)-[1,1′-biphenyl]-3-yl)methoxy)phenyl)acetic acid] | 22
16 | C[C@H](N)c1cccc(-c2cc(COc3ccccc3CC(=O)O)cc(OCC3(C)CC3)c2)c1F [Example 260, (S)-2-(2-((3′-(1-aminoethyl)-2′-fluoro-5-((1-methylcyclopropyl)methoxy)-[1,1′-biphenyl]-3-yl)methoxy)phenyl)acetic acid] | 39
17 | C[C@@H](N)c1cccc(-c2cc(COc3ccccc3CC(=O)O)cc(OCC3(C)CC3)c2)c1 [Example 261, (R)-2-(2-((3′-(1-aminoethyl)-5-((1-methylcyclopropyl)methoxy)-[1,1′-biphenyl]-3-yl)methoxy)phenyl)acetic acid] | 24
18 | C[C@@H](N)c1cccc(-c2cc(COc3ccccc3CC(=O)O)cc(OCC3(C)COC3)c2)c1F [Example 262, (R)-2-(2-((3′-(1-aminoethyl)-2′-fluoro-5-((3-methyloxetan-3-yl)methoxy)-[1,1′-biphenyl]-3-yl)methoxy)phenyl)acetic acid] | 41
19 | C[C@@H](N)c1cccc(-c2cc(COc3ccccc3CC(=O)O)cc(OCC3(C)COC3)c2)c1 [Example 263, (R)-2-(2-((3′-(1-aminoethyl)-5-((3-methyloxetan-3-yl)methoxy)-[1,1′-biphenyl]-3-yl)methoxy)phenyl)acetic acid] | 14
20 | C[C@@H](N)c1cccc(-c2cc(COc3ccccc3CC(=O)O)cc(OCC3CCCCO3)c2)c1F (stereo partly drawn) [Example 264, 2-(2-((3′-((R)-1-aminoethyl)-2′-fluoro-5-((tetrahydro-2H-pyran-2-yl)methoxy)-[1,1′-biphenyl]-3-yl)methoxy)phenyl)acetic acid] | 15
21 | C[C@@H](N)c1cccc(-c2cc(COc3ccccc3CC(=O)O)cc(OCC3CCCCO3)c2)c1 (stereo partly drawn) [Example 265, 2-(2-((3′-((R)-1-aminoethyl)-5-((tetrahydro-2H-pyran-2-yl)methoxy)-[1,1′-biphenyl]-3-yl)methoxy)phenyl)acetic acid] | 7
22 | C[C@@H](N)c1cccc(-c2cc(COc3ccccc3CC(=O)O)cc(OCC3CCCN3)c2)c1F (stereo partly drawn) [Example 266, 2-(2-((3′-((R)-1-aminoethyl)-2′-fluoro-5-(pyrrolidin-2-ylmethoxy)-[1,1′-biphenyl]-3-yl)methoxy)phenyl)acetic acid] | 34
23 | C[C@@H](N)c1cccc(-c2cc(COc3ccccc3CC(=O)O)cc(OCC3CCCN3)c2)c1 (stereo partly drawn) [Example 267, 2-(2-((3′-((R)-1-aminoethyl)-5-(pyrrolidin-2-ylmethoxy)-[1,1′-biphenyl]-3-yl)methoxy)phenyl)acetic acid] | 39
24 | CCOC(=O)Cc1ccccc1OCc1cccc(-c2cccc([C@H](N)CO)c2)c1 [Example 268-C, (S)-Ethyl 2-(2-((3′-(1-amino-2-hydroxyethyl)-[1,1′-biphenyl]-3-yl)methoxy)phenyl)acetate] | 54800
